Like-named read-outs stand apart in the source and are kept apart here.
Columns and labels:
NCI-H1693 cells = assay: USP1 CTG test: NCI-H1693 cell killing experiment; format: cell-based; conditions: 6 days, CTG detection, read-out: IC50 (inhibition of NCI-H1693 cells)
Experimental: Test Example 2 USP1 CTG Test Method
NCI-H1693 cell killing experiment was used to verify the biological activity of USP1i compound in vitro.
NCI-H1693 cells were purchased from ATCC (article number: CRL-5866) and cultured in a cell incubator with 5% CO2 (containing 5% CO2 and 95% air by volume) at 37° C.; 1640 complete medium: comprising 94 wt % RPMI-1640 liquid medium (Gibco, article number: 11875-093), 5 wt % FBS (Gibco, article number: 10099-141), and 1 wt % Pen Strep (Gibco, article number: 15070-063): Fluorescent 384-well plate (Perkin Elmer, article number: 6007279); Trypsin (Gibco, article number: 25200056); CTG Buffer (CellTiter-Glo® 2.0 Cell Viability Assay, Promega, article number: G9241).
[formula] • X: Log10 (compound complex concentration); • Y: corresponding response;
Top and Bottom: corresponding response corresponding to the same unit of Y; and it is noted that: • if X is not the logarithm of dosage, data shall be returned and converted; • if any baseline response is subtracted, the Bottom is set as a constant value of 0.0; and fitting the data to get the IC50 value; • wherein the fitting conditions may be adjusted according to the specific conditions of the data; specifically, Constraint conditions of Bottom, TOP and HillSlope may be adjusted appropriately so as to achieve the curve that is most in line with the actual situation.

[1] = test system: OV0589 Patient-derived Xenograft (PDX); assay: Pharmacodynamic experiment of OV0589 patient-derived xenograft (PDX); format: in vivo, Female BALB/c nude mice; conditions: oral; for TGI % (tumor growth inhibition rate): Day 36, OV0589 PDX in BALB/c nude mice; for inhibitory effect on tumor growth (FIG. 1): OV0589 PDX
Experimental: Test Example 5 Pharmacodynamic Experiment of OV0589 Patient-derived Xenograft (PDX)
Female BALB/c nude mice were used as test animals. After oral administration of the compound of this application, the tumor was measured and weighed regularly, and the tumor growth inhibition and tolerance in different administration groups were investigated. After the investigate, plasma and tumor were collected at a specific time point for pharmacokinetic analysis/pharmacodynamics (PK/PD) analysis.
Tumor-bearing mouse tumor (R10P8) was purchased from Sino-American Crown Biotechnology (Beijing) Co., Ltd. Ubiquityl-PCNA (Lys 164) (D5C7P) mAb antibody was purchased from Cell Siganaling company, and the article number is 13439S. PCNA (PC10) antibody was purchased from Santa Cruz company, and the article number is se-56.
Female BALB/c nude mice having a weight of between 21 and 25 g; supplier: Beijing An Kai Yibo Biotechnology Co., Ltd.
Under a temperature of 20° C. to 26° C. and a humidity of 30% to 70% and alternate illumination day and night, when the tumor (R10P8) of the tumor-bearing mice grew to a diameter of about 1 cm (the tumor size reaches 50 to 800 mm^3), the tumor was collected and cut into tumor blocks of about 2 to 3 mm^3, and the tumor block (R10P8) was inoculated subcutaneously into the right anterior scapula of female BALB/c nude mice. The tumor growth in mice was observed regularly. After 35 days of inoculation, when the tumor (R10P8) grew to an average volume of about 150 mm^3 (the range of enrollment was 86.54 mm^3 to […]), according to the tumor size and the weight of mice, StudyDirector™ (version No. 3.1.399.19, supplied by Studylog System, Inc., S. San Francisco, California, USA) was used for random grouping, and the administration was performed for these groups the next day.
Twelve mice were randomly divided into four groups, namely, G1 to G4. Group G1 is the solvent control group, and the solvent is: 10 vol % DMSO+20 vol % Solutol+70 vol % water+5 vol % DMSO+10 vol % Solutol+85 vol % saline. Group G2 was orally administrated with KSQ4279 at a dosage of 100 mg/kg (npk), and the solvent was 5 vol % DMSO+10 vol % Solutol+85 vol % saline.
The tumor growth in mice was observed regularly, and the tumor volume was measured (see FIG. 1), and the change of body weight of mice was observed regularly (see FIG. 2). After 36 days of administration, plasma and tumor were collected for PK/PD analysis.

[2] = Pharmacokinetic determination in male Beagle dogs; format: in vivo; conditions: IV 0.2 mg/kg
Experimental: Test Example 4 Pharmacokinetic Determination of Compounds of the Present Application in Male Beagle Dogs
Male Beagle dogs were used as test animals. After intravenous injection and oral administration, plasma samples were collected at specific time points. The concentration of the compound in plasma was detected by LC-MS/MS, and the DMPK parameters were calculated to evaluate the pharmacokinetic characteristics of the compound in dog plasma.
Compounds of Table 6 in this application. […] The structural formula of KSQ-4279 is: […]
Male Beagle dogs having a weight of 9 to 13 kg, supplied by Beijing Mars Biotechnology Co., Ltd.
Administration information of the compound in this application: both group IV (intravenous injection group) and group PO (oral administration group) consist of 3 dogs; for group IV, the dosage was 0.2 mg/kg and the administration volume was 0.5 mL/kg; for group PO, the dosage was 3 mg/kg and the administration volume was 3 mL/kg. The administration solvent was 5 vol % DMSO+10 vol % Solutol (Kolliphor HS 15)+85 vol % Saline (physiological saline).
0.5 mL of blood was collected from the head vein in group IV at 0.083, 0.25, 0.5, 1, 2, 4, 8 and 24 hours respectively after administration, and from the head vein in group PO at 0.25, 0.5, 1, 2, 4, 8 and 24 hours respectively after administration. The collected samples were placed in EDTA-K2 test tube; plasma was separated by centrifuging at 2 to 8° C. and 2000 g for 10 minutes, which was then stored at −80° C. until analysis of the samples.
Dog plasma samples were treated by: • 1) adding 200 μL acetonitrile to 50 μL plasma sample for precipitation, vortex mixing the mixture for 30 seconds, and centrifuging at 4° C. and 3900 rpm for 15 minutes; and • 2) diluting the obtained supernatant with water for 3 folds, and analyzing the concentration of the compounds to be detected by LC/MS/MS.

[3] = target: recombinant human His6-USP1/His6-UAF1 composite protein (Homo sapiens (Human), UniProt O94782); assay: USP1 enzyme activity detection (Ub-Rho fluorescence); format: biochemical; conditions: USP1/UAF1, Ub-Rho substrate 300 nM, 1 hour pre-incubation; read-out: IC50 (enzymatic inhibition of USP1)
Chain of recombinant human His6-USP1/His6-UAF1 composite protein (O94782 whole entry): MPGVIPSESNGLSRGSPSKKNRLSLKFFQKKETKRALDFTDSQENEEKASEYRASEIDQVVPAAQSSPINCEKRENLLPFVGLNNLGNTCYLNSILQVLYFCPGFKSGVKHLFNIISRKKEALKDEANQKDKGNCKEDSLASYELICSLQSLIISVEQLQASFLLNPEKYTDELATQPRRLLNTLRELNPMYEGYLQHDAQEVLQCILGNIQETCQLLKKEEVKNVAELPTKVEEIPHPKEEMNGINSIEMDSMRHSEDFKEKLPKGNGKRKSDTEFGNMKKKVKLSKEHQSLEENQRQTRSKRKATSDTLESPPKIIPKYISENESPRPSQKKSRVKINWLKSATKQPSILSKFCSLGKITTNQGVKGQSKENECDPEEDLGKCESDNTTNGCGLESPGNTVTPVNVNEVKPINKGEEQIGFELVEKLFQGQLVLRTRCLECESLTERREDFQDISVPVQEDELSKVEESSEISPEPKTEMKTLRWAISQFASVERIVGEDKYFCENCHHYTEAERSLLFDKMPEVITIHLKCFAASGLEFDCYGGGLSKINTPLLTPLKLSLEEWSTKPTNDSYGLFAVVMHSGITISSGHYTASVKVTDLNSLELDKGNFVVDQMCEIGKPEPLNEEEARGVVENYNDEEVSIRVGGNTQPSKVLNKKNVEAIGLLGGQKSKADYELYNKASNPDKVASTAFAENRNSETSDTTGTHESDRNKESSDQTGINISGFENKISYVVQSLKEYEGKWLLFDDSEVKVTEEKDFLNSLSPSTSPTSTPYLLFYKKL
Chain of recombinant human His6-USP1/His6-UAF1 composite protein (Q8TAF3 whole entry partner): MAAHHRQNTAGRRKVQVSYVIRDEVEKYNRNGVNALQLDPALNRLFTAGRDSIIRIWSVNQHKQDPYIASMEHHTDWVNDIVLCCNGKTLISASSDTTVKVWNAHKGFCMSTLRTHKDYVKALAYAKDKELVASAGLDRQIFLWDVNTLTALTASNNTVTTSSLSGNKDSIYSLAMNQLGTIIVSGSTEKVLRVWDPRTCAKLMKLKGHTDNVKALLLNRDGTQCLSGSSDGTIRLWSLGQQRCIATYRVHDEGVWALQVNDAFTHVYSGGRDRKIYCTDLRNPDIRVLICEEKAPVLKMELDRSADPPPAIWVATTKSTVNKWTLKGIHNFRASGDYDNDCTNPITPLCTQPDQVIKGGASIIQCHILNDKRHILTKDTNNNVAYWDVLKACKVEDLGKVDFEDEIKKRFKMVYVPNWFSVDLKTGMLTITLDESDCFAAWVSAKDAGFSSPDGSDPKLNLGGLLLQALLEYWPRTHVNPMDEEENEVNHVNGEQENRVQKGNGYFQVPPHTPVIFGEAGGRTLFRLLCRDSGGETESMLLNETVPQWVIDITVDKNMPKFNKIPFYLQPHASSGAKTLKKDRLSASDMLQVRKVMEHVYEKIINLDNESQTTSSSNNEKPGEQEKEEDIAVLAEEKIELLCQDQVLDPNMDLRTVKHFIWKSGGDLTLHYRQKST
From the text: USPli compounds were screened by USP1 enzyme activity detection experiment.
1.1 Experimental materials: recombinant human His6-USP1/His6-UAF1 composite protein. (R&D, catalog number E-568-050): Ubiquitin rhodamine 110 (Ub-Rho) (R&D, catalog number U-555-050); Fluorescent 384-well plate (Perkin Elmer, Art. No. 6007279).
1.2 Test sample: Compounds of table 3 in this application, whose structural formulae and preparation methods are shown in the above examples.
Using Equation (I) to fit data in Excel to obtain the inhibition value;
[formula] • wherein, the maximum signal value represents the luminous signal intensity of the positive control hole without adding the compound of the application; the minimum signal value represents the luminous signal intensity of the negative control hole without enzyme; and the target signal value represents the luminous signal intensity of the Test samples; and • fitting the data in XL-Fit with Equation (II) to obtain IC50 value:
[formula] • wherein Y is the inhibition rate, X is the concentration of the compound; Bottom is the lowest inhibition rate; Top is the highest inhibition rate; and HillSlope is the slope.

SMILES | IC50 [3] [nM] | also measured
COc1ncnc(C2CC2)c1-c1ncc2c(n1)n(Cc1ccc(-c3nc(C(F)(F)F)cn3C)cc1)c1nncn21 [Comparative compound 2, reference compound] |  | IC50 (NCI-H1693 cells; Homo sapiens, 144 h): 174 nM
COc1ncnc(C2CC2)c1-c1ncc2c3ccc(C#N)cc3n(Cc3ccc4c(c3)CCCn3cc(C(F)(F)F)nc3-4)c2n1 [Compound 58] |  | TGI % (tumor growth inhibition rate) ([1]; 30 mg/kg): 97.5%; TGI % (tumor growth inhibition rate) ([1]; 100 mg/kg): 107.7%; inhibitory effect on tumor growth (FIG. 1) ([1]; 100 mg/kg): the best inhibitory effect on tumor growth; IC50 (NCI-H1693 cells): 13 nM; AUClast [2]: 190 ng·h/mL; CL (overall clearance rate) [2]: 15.8 mL/min/kg
COc1ncnc(C2CC2)c1-c1ncc2c3ccc(C#N)cc3n(Cc3ccc(-c4nc(C(F)(F)F)c5ccccn45)cc3)c2n1 [Compound 126] | 7.1 | 
COc1ncnc(C2CC2)c1-c1ncc2c3ccc(C)nc3n(Cc3ccc4c(c3)CCCn3cc(C(F)(F)F)nc3-4)c2n1 [Compound 128] | 4.8 | 
COc1ncnc(C2CC2)c1-c1ncc2c3ccc(C#N)cc3n(Cc3ccc(-c4nc(C(F)(F)F)c5cnccn45)cc3)c2n1 [Compound 129] | 36 | 
COc1ncnc(C2CC2)c1-c1ncc2c3cn(C)nc3n(Cc3ccc(-c4nc(C(F)(F)F)sc4C)cc3)c2n1 [Compound 131] | 4.68 | 
COc1ncnc(C2CC2)c1-c1ncc2c3cn(C)nc3n(Cc3ccc4c(c3)C3C(Cn5cc(C(F)(F)F)nc5-4)C3(F)F)c2n1 (centres unmarked) [Compound 133] | 22 | 
COc1ncnc(C2CC2)c1-c1ncc2c3ccc(N4CCOCC4)nc3n(Cc3ccc4c(c3)CCCn3cc(C(F)(F)F)nc3-4)c2n1 [Compound 135] | 4.4 | 
COc1ncnc(C2CC2)c1-c1ncc2c3ccc(N4CC(O)C4)nc3n(Cc3ccc4c(c3)CCCn3cc(C(F)(F)F)nc3-4)c2n1 [Compound 136] | 1.34 | 
COc1ncnc(C2CC2)c1-c1ncc2c3ccc(N4CC(OC)C4)nc3n(Cc3ccc4c(c3)CCCn3cc(C(F)(F)F)nc3-4)c2n1 [Compound 137] | 1.54 | 
COc1ncnc(C2CC2)c1-c1ncc2c3cn(C)nc3n(Cc3ccc4c(c3)CCCCn3cc(C(F)(F)F)nc3-4)c2n1 [Compound 138] | 1.8 | 
COc1ncnc(C2CC2)c1-c1ncc2c3cn(C)nc3n(Cc3ccc(-c4nc(C(F)(F)F)c5n4CCOC5)cc3)c2n1 [Compound 139] | 23.5 | 
COc1ncnc(C2CC2)c1-c1ncc2c3ccc(C#N)nc3n(Cc3ccc4c(c3)CCCn3cc(C(F)(F)F)nc3-4)c2n1 [Compound 140] | 7.29 | 
COc1ncnc(C2CC2)c1-c1ncc2c3ccc(P4(=O)CCCC4)cc3n(Cc3ccc(-c4nc(C(F)(F)F)cn4C(C)C)c(F)c3)c2n1 [Compound 141] | 4 | 
COc1ncnc(C2CC2)c1-c1ncc2c3ccc(P4(=O)CCCC4)cc3n(Cc3ccc(-c4nc(C(F)(F)F)c5n4CCC5)cc3)c2n1 [Compound 142] | 6.2 | 
COc1ncnc(C2CC2)c1-c1ncc2c3cn(C)nc3n(Cc3ccc(-c4nc(C(F)(F)F)c5n4CCC5)c(F)c3)c2n1 [Compound 143] | 4.67 | 
COc1ncnc(C2CC2)c1-c1ncc2c3cn(C)nc3n(Cc3cc(F)c(-c4nc(C(F)(F)F)c5n4CCC5)c(F)c3)c2n1 [Compound 144] | 3.17 | 
[2H]C([2H])([2H])n1cc2c3cnc(-c4c(OC)ncnc4C4CC4)nc3n(Cc3ccc(-c4nc(C(F)(F)F)cn4C(C)C)c(F)c3)c2n1 [Compound 145] | 5.91 | 
COc1ncnc(C2CC2)c1-c1ncc2c3cc(F)cnc3n(Cc3ccc4c(c3)CCCn3cc(C(F)(F)F)nc3-4)c2n1 [Compound 146] | 11.6 | 
COc1ncnc(C2CC2)c1-c1ncc2c3ccncc3n(Cc3ccc(-c4nc(C(F)(F)F)c(C)n4C)cc3)c2n1 [Compound 151] | 1 | 
COc1ncnc(C2CC2)c1-c1ncc2c3ccncc3n(Cc3ccc(-c4nc(C(F)(F)F)c(Br)n4C)cc3)c2n1 [Compound 152] | 11 | 
CCP(=O)(CC)c1ccc2c3cnc(-c4c(OC)ncnc4C4CC4)nc3n(Cc3ccc4c(c3)CCCn3cc(C(F)(F)F)nc3-4)c2c1 [Compound 154] | 6.2 | 
COc1ncnc(C2CC2)c1-c1ncc2c3ccncc3n(Cc3ccc(-c4nc(C(F)(F)F)c(F)n4C)cc3)c2n1 [Compound 155] | 26 | 
COc1ncnc(C2CC2)c1-c1ncc2c3cn(C)nc3n(Cc3ccc(-c4nc(C(F)(F)F)c5ccccn45)cc3)c2n1 [Compound 156] | 3.5 | 
COc1ncnc(C2CC2)c1-c1ncc2c3ccc(C#N)cc3n(Cc3ccc(-c4nc(C(F)(F)F)c(C5CC5)n4C)cc3)c2n1 [Compound 164] | 12 | 
COc1ncnc(C2CC2)c1-c1ncc2c3cn(C)nc3n(Cc3ccc(-c4nc(C(F)(F)F)cs4)cc3)c2n1 [Compound 166] | 10.2 | 
COc1ncnc(C2CC2)c1-c1ncc2cnn(Cc3ccc(-c4nc(C(F)(F)F)cn4C(C)C)cc3)c2n1 [KSQ-4279, reference compound] |  | TGI % (tumor growth inhibition rate) ([1]; 100 mg/kg): 85.7%; inhibitory effect on tumor growth (FIG. 1) ([1]; 100 mg/kg): obviously worse than compound 58 (dosage of 100 mg/kg); AUC(0-t) ([2]; dog, plasma): 124 ng·h/mL; clearance ([2]; dog, plasma, read-out: CL (overall clearance rate) (converted)): 28.3 mL/min/kg

Source: US20250368667A1, “USP1 INHIBITOR” (Shanghai Qilu Pharmaceutical Research and Development …, priority 2022, published 2025)
